The source made the active and inactive calls. Bounds are passed on as bounds.

7 compounds from ChEMBL document CHEMBL1201862, “PubChem BioAssay data set” (2004) can be followed below.

Assay [1] can be described thus: Trypanosoma cruzi growth suppression in host cells – NIH3T3 host cells, beta-gal luminescence, confirmation (AID 2044).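 Further: intracellular parasites grown in NIH/3T3 mouse fibroblasts as host cells; luminescent beta-galactosidase reporter signal from transgenic T. cruzi replicating inside host cells; inhibitors lower the luminescence signal.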 Type of assay: functional, cell-based.
The target of assay [2] is T1, Tyrosine-protein phosphatase non-receptor type 22 (Homo sapiens, UniProt Q9Y2R2).
T1 sequence (Q9Y2R2 whole entry): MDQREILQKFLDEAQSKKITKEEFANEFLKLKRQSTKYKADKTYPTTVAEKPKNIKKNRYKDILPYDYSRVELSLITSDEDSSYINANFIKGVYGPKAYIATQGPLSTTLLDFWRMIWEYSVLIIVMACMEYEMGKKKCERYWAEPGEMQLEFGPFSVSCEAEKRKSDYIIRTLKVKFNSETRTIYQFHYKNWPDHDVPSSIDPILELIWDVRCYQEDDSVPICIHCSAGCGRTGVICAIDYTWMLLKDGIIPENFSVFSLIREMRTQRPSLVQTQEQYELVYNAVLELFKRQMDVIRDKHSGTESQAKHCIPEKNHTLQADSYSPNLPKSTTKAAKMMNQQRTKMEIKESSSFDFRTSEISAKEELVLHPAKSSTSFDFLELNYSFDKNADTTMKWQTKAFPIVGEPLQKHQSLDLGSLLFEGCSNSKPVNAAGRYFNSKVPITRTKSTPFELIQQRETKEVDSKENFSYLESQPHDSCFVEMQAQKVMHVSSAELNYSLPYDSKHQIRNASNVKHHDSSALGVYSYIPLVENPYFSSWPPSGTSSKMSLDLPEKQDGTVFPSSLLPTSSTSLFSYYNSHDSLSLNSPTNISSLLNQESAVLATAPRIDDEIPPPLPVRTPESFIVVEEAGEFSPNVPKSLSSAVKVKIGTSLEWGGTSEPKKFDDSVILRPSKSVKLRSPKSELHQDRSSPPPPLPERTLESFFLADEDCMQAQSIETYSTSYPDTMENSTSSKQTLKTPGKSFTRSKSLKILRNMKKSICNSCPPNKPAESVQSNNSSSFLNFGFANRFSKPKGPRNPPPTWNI
Type of assay: functional.

The target in assay [3] is T1, Tyrosine-protein phosphatase non-receptor type 22. The class given is functional. This is another data set of the same source.
The target of assay [4] is T2, Tyrosine-protein phosphatase non-receptor type 7 (Homo sapiens, UniProt P35236).
T2 sequence (P35236 whole entry): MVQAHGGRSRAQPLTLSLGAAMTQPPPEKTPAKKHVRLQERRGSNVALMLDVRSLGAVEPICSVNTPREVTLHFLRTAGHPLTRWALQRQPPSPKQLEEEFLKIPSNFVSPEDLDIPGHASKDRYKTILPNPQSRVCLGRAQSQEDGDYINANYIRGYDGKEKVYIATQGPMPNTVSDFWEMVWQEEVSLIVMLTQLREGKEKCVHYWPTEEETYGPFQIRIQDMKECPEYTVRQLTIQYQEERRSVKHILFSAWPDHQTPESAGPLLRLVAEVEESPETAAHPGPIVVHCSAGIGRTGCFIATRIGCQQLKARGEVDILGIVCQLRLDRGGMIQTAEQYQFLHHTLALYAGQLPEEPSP
Type of assay: functional.

The nature of assay [5]: NIH3T3 cell viability loss – ATP luminescence, mouse fibroblasts, counter-screen, dose response (AID 2010).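 Further: cells exposed to compound for about 90 hours before reading.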 The class given is functional, cell-based.
The subject of assay [6] is BJ. In words: BJ-TERT fibroblast viability loss – cell-based, RAS-independent, luminescence, dose response (AID 1933). The following applies: Homo sapiens. The class given is functional.
For another assay, the target named is Cannabinoid receptor 1 (Homo sapiens, UniProt P21554). The assay can be described thus: SAR analysis of antagonists of the Cannabinoid Receptor 1 using an Image-Based Assay. [Related pubchem assays (depositor defined):AID1961, AID1965]. The class given is functional.
Chain of Cannabinoid receptor 1 (P21554 whole entry): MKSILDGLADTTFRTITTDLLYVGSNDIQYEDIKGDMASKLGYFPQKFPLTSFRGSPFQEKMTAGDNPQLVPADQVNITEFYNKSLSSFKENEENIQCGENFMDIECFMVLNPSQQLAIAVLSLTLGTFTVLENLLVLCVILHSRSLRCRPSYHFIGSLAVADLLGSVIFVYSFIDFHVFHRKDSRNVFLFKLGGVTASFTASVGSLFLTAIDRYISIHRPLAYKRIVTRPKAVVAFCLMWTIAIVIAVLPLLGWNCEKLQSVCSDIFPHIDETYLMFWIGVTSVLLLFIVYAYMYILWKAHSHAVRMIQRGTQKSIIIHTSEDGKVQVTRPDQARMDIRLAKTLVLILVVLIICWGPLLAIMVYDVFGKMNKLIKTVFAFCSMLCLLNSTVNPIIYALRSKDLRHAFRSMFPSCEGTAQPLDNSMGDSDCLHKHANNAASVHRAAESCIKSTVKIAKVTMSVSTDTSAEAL
Assay [7] has as its target T3, G-protein coupled receptor 55 (Homo sapiens, UniProt Q9Y2T6). The assay can be described thus: selective activators of receptor GPR55 – imaging, U2OS cells, beta-arrestin-GFP redistribution, primary screen (AID 1961). The class given is functional.
The target of assay [8] is T4, Cannabinoid receptor 2 (Homo sapiens, UniProt P34972). The assay can be described thus: SAR analysis of antagonists of the Cannabinoid Receptor 2 using an Image-Based Assay - Set 2. [Related pubchem assays (depositor defined):AID1961, AID1965]. The class given is functional.
T4 sequence (P34972 whole entry): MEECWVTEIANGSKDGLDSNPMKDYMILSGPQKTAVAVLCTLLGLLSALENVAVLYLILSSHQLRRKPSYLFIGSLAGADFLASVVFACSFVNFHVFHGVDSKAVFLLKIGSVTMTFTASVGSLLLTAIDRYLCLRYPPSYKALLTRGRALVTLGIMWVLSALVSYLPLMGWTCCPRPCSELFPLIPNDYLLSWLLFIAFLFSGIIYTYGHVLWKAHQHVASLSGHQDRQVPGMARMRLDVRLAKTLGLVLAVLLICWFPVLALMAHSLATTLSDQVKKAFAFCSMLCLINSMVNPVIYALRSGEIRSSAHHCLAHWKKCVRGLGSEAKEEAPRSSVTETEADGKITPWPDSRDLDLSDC
Assay [9] has as its system BJ. In words: BJ-TERT-LT-ST fibroblast viability loss – cell-based, RAS-independent, luminescence, dose response (AID 1935).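 Further: BJ fibroblasts immortalized with TERT plus LT and ST oncogenes.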 The following applies: Homo sapiens. The class given is functional.
Assay [10] relates to BJ. In words: cells. Type of assay: functional, cell-based. The following applies: Homo sapiens.
In assay [11] the target is T3, G-protein coupled receptor 55. In words: SAR analysis of selective Agonists of GPR55 using an Image-Based Assay. [Related pubchem assays (depositor defined):AID1961, AID1965]. Type of assay: functional.
The target in assay [12] is T4, Cannabinoid receptor 2. In words: SAR analysis of agonists of the Cannabinoid Receptor 2 using an Image-Based Assay - Set 2. [Related pubchem assays (depositor defined):AID1961, AID1965]. Type of assay: functional.
A short description of assay [13]: DRD fibroblast viability loss – cell-based, non-viral oncogenic, luminescence, dose response (AID 1934). Type of assay: functional. The following applies: Homo sapiens.
A short description of assay [14]: Luminescence Cell-Based Dose Retest to Confirm Inhibitors of Cancer Stem Cells. [Related pubchem assays (depositor defined):AID2717, AID2721]. Type of assay: functional. The following applies: Homo sapiens.
In assay [15] the target is T5, Alkaline phosphatase, tissue-nonspecific isozyme (Homo sapiens, UniProt P05186).
T5 sequence (P05186 whole entry): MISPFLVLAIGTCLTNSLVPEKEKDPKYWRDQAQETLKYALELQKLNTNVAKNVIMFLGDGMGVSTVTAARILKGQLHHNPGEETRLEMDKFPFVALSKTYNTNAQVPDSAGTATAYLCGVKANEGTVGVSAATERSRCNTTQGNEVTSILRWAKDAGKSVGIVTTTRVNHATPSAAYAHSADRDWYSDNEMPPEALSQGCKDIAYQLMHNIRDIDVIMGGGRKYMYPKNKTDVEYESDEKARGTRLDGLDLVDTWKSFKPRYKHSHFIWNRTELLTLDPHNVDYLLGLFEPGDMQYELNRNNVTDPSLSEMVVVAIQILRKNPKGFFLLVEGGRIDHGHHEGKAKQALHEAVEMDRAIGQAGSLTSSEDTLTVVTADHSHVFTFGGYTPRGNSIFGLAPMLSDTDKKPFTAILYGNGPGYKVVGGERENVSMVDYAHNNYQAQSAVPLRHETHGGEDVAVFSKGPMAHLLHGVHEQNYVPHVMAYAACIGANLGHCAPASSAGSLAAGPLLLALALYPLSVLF
In words: activation of tissue-nonspecific alkaline phosphatase – biochemical, TNAP isozyme, mouse IAP uHTS hits, selectivity assay for mouse IAP activator project, dose response (AID 488880). Type of assay: functional.

Assay [16] addresses T6, Intestinal-type alkaline phosphatase (Mus musculus, UniProt P24822). In words: mouse intestinal alkaline phosphatase activators, dose response, biochemical, luminescence, uHTS hits (AID 488783). The class given is functional.
For assay [17], the target named is T7, Intestinal-type alkaline phosphatase (Homo sapiens, UniProt P09923). In words: activation of human intestinal alkaline phosphatase – biochemical, dose response (AID 488873). The class given is functional.
T7 sequence (P09923 whole entry): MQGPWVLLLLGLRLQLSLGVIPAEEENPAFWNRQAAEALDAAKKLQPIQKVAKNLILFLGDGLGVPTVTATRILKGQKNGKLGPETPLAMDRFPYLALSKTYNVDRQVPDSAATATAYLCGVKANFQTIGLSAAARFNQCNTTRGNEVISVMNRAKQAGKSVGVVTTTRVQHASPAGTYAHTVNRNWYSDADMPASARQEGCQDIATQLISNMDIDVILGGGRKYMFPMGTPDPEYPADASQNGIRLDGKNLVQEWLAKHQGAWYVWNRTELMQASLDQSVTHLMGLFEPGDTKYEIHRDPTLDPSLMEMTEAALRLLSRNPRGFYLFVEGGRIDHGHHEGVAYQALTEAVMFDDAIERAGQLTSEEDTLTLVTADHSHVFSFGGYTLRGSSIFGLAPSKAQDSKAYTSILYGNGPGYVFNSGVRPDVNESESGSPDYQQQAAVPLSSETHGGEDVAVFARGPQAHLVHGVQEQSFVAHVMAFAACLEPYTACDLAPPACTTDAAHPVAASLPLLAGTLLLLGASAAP
In assay [18] the target is T3, G-protein coupled receptor 55. The assay can be described thus: blockers of GPR55 signalling, imaged – imaging, image-based, counter-screen for GPR35 antagonist project, SAR follow-up (AID 2397). Type of assay: functional.
For assay [19], the target named is T1, Tyrosine-protein phosphatase non-receptor type 22. The assay can be described thus: SAR LYP1 Fluorescent Assay using OMFP substrate for In Vitro dose response studies - Set 3. [Related pubchem assays (depositor defined):AID1779, AID1784, AID2140, AID2686]. The class given is functional.
Assay [20] has the same target. In words: inhibition of lymphoid tyrosine phosphatase LYP – biochemical, pCAP fluorogenic substrate, fluorescence, set 3, SAR follow-up (AID 449727). Type of assay: functional.
Assay [21] deals with Tyrosine-protein phosphatase non-receptor type 12 (Homo sapiens, UniProt Q05209). The assay can be described thus: SAR Selectivity Analysis of small molecule inhibitors of PEST using pCAP in a fluorescence assay. [Related pubchem assays (depositor defined):AID1779, AID1784, AID2135]. The class given is functional.
Chain of Tyrosine-protein phosphatase non-receptor type 12 (Q05209 whole entry): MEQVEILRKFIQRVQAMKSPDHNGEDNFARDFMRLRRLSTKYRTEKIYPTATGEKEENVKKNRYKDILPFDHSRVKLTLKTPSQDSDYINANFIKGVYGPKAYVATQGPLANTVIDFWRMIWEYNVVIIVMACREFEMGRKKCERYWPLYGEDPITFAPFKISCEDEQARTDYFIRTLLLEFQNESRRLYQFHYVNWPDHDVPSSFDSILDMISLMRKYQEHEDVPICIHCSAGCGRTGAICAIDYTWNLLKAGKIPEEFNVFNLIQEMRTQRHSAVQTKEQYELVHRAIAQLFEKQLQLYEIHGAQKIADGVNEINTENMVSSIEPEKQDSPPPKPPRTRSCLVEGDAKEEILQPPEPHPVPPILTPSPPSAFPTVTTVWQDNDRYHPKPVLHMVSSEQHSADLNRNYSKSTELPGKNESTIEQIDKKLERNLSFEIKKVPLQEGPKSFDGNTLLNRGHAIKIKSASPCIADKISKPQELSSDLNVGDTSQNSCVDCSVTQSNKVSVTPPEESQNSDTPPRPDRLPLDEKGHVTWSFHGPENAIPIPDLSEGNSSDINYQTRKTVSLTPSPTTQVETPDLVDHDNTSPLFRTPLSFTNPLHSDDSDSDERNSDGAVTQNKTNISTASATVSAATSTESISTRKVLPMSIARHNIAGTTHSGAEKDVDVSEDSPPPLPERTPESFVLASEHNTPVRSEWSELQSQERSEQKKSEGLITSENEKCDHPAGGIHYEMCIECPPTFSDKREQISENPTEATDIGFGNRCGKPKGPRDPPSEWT
For assay [22], the target named is T2, Tyrosine-protein phosphatase non-receptor type 7. In words: inhibition of hematopoietic tyrosine phosphatase HePTP – biochemical, set 2, SAR follow-up (AID 449736). The class given is functional.
Assay [23] has as its target T1, Tyrosine-protein phosphatase non-receptor type 22. In words: SAR LYP1 Fluorescent Assay using OMFP substrate for In Vitro dose response studies - Set 2. [Related pubchem assays (depositor defined):AID1779, AID1784, AID2140, AID449726, AID488869]. Type of assay: functional.
Assay [24] has the same target. In words: SAR LYP1 Fluorescent Assay using pCAP substrate for In Vitro dose response studies - Set 2. [Related pubchem assays (depositor defined):AID1779, AID1784, AID2135, AID449727]. Type of assay: functional.
For a further assay, the target named is Mu-type opioid receptor (Homo sapiens, UniProt P35372). In words: SAR Analysis of Agonists of the MOR Receptor using an Image-Based Assay - Set 3. [Related pubchem assays (depositor defined):AID1777, AID1785, AID1786, AID1966, AID2133, AID2136, AID2284, AID2285, AID2352]. Type of assay: functional.
Chain of Mu-type opioid receptor (P35372 whole entry): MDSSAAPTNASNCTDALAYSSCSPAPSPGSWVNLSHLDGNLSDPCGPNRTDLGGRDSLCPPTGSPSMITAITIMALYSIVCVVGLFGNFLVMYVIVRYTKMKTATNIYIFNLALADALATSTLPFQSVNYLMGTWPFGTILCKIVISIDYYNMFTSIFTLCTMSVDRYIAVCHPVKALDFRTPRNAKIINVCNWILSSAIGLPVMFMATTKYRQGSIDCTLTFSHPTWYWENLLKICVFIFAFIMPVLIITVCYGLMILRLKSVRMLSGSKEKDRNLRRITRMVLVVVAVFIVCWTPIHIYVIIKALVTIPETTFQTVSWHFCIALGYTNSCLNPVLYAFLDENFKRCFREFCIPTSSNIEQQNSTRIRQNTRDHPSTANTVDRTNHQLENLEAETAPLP
The target in assay [25] is Delta-type opioid receptor (Homo sapiens, UniProt P41143). In words: SAR Analysis of Agonists of the DOR Receptor using an Image-Based Assay - Set 3. [Related pubchem assays (depositor defined):AID1777, AID1786]. Type of assay: functional.
Chain of Delta-type opioid receptor (P41143 whole entry): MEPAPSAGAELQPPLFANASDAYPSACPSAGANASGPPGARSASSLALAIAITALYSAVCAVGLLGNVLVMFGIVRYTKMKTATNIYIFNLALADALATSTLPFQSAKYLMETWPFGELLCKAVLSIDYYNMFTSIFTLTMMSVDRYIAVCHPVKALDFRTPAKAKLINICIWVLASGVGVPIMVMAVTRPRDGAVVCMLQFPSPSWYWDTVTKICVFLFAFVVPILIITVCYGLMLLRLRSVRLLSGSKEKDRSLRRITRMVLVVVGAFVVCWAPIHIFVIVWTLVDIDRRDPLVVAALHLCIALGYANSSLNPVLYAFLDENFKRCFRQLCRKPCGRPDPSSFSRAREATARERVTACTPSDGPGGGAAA
Assay [26] concerns the target T8, Kappa-type opioid receptor (Homo sapiens, UniProt P41145). The assay can be described thus: kappa opioid receptor activation by imaging – image-based, set 3, SAR follow-up (AID 488833). Type of assay: functional.
The target in assay [27] is T8, Kappa-type opioid receptor. The assay can be described thus: SAR analysis of small molecule agonists of the kappa opioid receptor via a luminescent beta-arrestin assay - Set 3. [Related pubchem assays (depositor defined):AID1777, AID1785, AID1786, AID1966, AID2133, AID2136, AID2284, AID2500]. Type of assay: functional.
The next assay relates to Vero. The assay can be described thus: viability of Vero cells under compound – cytotoxicity control for flavivirus capping enzyme inhibitors (AID 588742). The following applies: Chlorocebus sabaeus. The class given is functional.
For assay [28], the target named is T5, Alkaline phosphatase, tissue-nonspecific isozyme. The assay can be described thus: TNAP enzyme inhibition by screening hits, dose response, selectivity assay for mouse IAP inhibitor project, biochemical, human TNAP, uHTS hits (AID 488906). Type of assay: functional.
Assay [29] addresses T6, Intestinal-type alkaline phosphatase. In words: PubChem AID 488785. Type of assay: functional.
Assay [30] concerns the target T7, Intestinal-type alkaline phosphatase. The assay can be described thus: inhibition of human intestinal alkaline phosphatase – biochemical, dose response (AID 488876). Type of assay: functional.
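Wherever AC50 is given: cells exposed to compound for roughly 70 hours or longer before luminescence read.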

T3 sequence (Q9Y2T6 whole entry): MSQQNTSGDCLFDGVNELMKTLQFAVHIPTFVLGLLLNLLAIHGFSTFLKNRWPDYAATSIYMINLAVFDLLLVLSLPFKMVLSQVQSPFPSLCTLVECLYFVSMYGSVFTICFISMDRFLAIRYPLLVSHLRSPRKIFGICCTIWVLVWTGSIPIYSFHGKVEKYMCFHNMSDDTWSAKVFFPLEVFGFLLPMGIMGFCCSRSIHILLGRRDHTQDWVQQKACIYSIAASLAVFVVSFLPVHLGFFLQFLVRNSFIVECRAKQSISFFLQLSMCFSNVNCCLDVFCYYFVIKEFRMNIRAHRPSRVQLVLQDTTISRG
T6 sequence (P24822 whole entry): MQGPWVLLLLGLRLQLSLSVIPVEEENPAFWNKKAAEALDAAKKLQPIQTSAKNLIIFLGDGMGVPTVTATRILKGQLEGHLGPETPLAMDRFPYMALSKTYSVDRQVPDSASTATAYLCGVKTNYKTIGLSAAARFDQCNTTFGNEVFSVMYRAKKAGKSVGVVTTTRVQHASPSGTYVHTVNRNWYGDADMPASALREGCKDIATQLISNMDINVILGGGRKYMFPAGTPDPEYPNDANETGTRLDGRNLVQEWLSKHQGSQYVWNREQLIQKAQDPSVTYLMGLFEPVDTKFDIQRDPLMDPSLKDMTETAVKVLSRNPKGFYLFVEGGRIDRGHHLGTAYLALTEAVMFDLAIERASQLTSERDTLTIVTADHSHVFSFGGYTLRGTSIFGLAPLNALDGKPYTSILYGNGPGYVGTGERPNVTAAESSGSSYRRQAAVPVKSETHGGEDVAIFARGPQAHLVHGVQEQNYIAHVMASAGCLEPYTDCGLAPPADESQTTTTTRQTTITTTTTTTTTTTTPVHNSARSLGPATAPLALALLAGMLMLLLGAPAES
T8 sequence (P41145 whole entry): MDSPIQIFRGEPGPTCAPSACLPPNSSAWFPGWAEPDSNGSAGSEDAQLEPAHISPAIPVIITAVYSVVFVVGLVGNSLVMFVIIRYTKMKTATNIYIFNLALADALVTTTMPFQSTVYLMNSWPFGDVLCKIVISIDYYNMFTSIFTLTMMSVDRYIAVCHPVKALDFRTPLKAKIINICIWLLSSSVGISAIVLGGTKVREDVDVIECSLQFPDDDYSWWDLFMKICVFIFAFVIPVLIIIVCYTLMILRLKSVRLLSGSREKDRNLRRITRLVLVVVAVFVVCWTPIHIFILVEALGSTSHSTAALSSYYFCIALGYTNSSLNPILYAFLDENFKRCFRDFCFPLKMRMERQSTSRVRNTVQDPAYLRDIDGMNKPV

With `CCC(C)NCCOCCOc1ccc(Cl)c(C)c1C` (stereo not drawn), the EC50 in assay [1] is 148 nM (active); in assay [5] it was 9.69 µM (active). In addition, the IC50 in [2], in assay [3] and in assay [4] was > 79.4 µM (inactive) in each case.

For `Cc1occc1C(=O)Nc1ccc(OCc2ccccc2)cc1`, the EC50 in the assay with BJ [6] was 11.4 µM (active); in [7], 866 nM (active); in the assay on BJ [9], > 150 µM (inconclusive); in the assay with BJ [10] it was 9.33 µM (active); in assay [11], 544 nM (active); on Cannabinoid receptor 2 [12], > 32 µM (inactive). Also, in [13], the concentration for a half-maximal effect (EC50) was 9.29 µM (active). Also, the IC50 on Cannabinoid receptor 1 and on Cannabinoid receptor 2 [8] was > 32 µM (inactive) each time. Further, the half-maximal activity concentration (AC50) in assay [14] was 5.34 µM (active).

Take `COc1ccc(NC(=O)CCNS(=O)(=O)c2ccc3[nH]c(=O)oc3c2)cc1Cl`: the results for the EC50 in assay [15], in assay [16] and in assay [17] were 39.6 µM (active), 20.5 µM (active) and 42.8 µM (active), respectively.

Regarding `Fc1ccc(N2CCN(c3ncnc4c3cnn4Cc3ccc(Cl)cc3Cl)CC2)cc1`, the IC50 in assay [18] was > 32 µM (inactive).

Turning to `O=C(O)COc1ccc(NC(=O)COc2ccc(Cl)cc2)cc1`, the IC50 in assay [19], in assay [20], in [21], in assay [22], in assay [23] and in [24] was > 100 µM (inactive) throughout.

In the case of `Fc1cc(F)cc(CSc2nnc(-c3ccccn3)n2Cc2cccs2)c1`, the EC50 on Mu-type opioid receptor was > 32 µM (inactive); in [25], > 32 µM (inactive); in assay [26] it was 3.58 µM (active); in assay [27] it was 7.2 µM (active).

As for `CCOC(=O)C1=C(C)N=c2s/c(=C/c3cccc([N+](=O)[O-])c3O)c(=O)n2C1c1ccc(OC)cc1OC` (stereo not drawn), the half-maximal cytotoxic concentration (CC50) in the assay on Vero was 39.4 µM (active). Also, the IC50 was 77.1 µM (active) in assay [28], 4.77 µM (active) in assay [29] and > 100 µM (inactive) in [30].
